How the values were obtained:
[1] = test system: systemic hypotension mediated by interleukin-1; experiment: Interleukin-1 mediated systemic hypotension; assay type: in vivo; conditions: after N^G-aminoarginine
untreated dogs [2] = assay type: in vivo, dog
Experimental: Recombinant human TNF specific activity 2×10^7 units/mg, was from the Niposn Chemical Corporation, Tokyo, Japan. TNF was administered at a dose of 10 mcg/kg in a volume of 10 ml of phosphate buffered saline containing 2 mgs/ml of dog albumin. […] Arginine was obtained from Sigma Chemical Company, St. Louis, Mo.
Four conditioned mongrel dogs, 2 males and 2 females, weighing 28 to 30 kgs, were studied. Care of the animals were in accordance with the recommendation of the American Association for Accreditation of Laboratory Animals [DHEW(DHHS) publication no. (NIH) 78-23, revised, 1978]. On the day of the experiment, the dogs were fasted overnight. They were anesthetized with phenobarbital (10 mg/kg). They were then intubated orally with a #10 fr. endotracheal tube and ventilated with a Harvard pump ventilator at a rate of 12 breaths per minute and a tidal volume of 15 ml/kg. An arterial line was percutaneously placed in the femoral artery on the day of the experiment.
Mean (electronic) and phasic systemic arterial pressures (SAP) were continuously recorded on a Hewlett-Packard recording system (model 7758B) using strain gauge manometers (Hewlett-Packard model 1290A) which were connected to the arterial line. Heart rate (HR) was determined from an EKG tracing and continuously recorded on the Hewlett-Packard recording system. Oxyhemoglobin saturation (SaO2) was obtained using a pulse oximeter (BIOX 111, Boulder, Colo.). continuous time-series records of SAP, HR, and SaO2 were obtained using a Lab Master analog-to-digital convertor (16 channel, 12 bit, 30 kHz; Scientific Solutions, Inc.) sampling at 55 Hz and storing the 6 sec averages on a magnetic disk.
This was followed by a compensatory decrease in the HR with a return of the BP to baseline. The NMMA-induced bradycardia lasted 31 minutes. This response was not observed in animals which had been previously treated with TNF. In a subsequent experiment (FIG. 7a) the hypotensive response to TNF was especially severe, with a decrease in BP from 125 mm to 36 mmHg. […] This was associated with a decrease in the HR from 101 to 92 beats/minute. […] In a second control study nitroglycerin was infused at a rate of 28 μg/kg/minute, IV, to lower the blood pressure to the same level as that observed with tumor necrosis factor (FIG. 7c).

rat aorta = experiment: ACh-induced relaxation of rat aorta; conditions: NMMA 5 μM
Experimental: Guinea pig pulmonary artery (GP PA), rat and rabbit aorta (Ao), and dog coronary (CA) and femoral artery (FA) were precontracted with NE (1 μM) and relaxed with a single concentration of ACh. Concentration of ACh: GP PA 1 μM, rat Ao […], rabbit Ao 0.3, dog CA […] and […] 0.1 μM. […] The concentrations of L-citrulline (L-cit), D-arginine (D-arg) and L-arginine (L-arg) were all 0.5 mM. Bars are mean values±SEM (n=4-6).

[3] = test system: bovine aortic endothelial cells (BAEC); experiment: A23187-stimulated nitrite release from bovine aortic endothelial cells; assay type: cell-based; conditions: 3 μg/ml A23187, 4-hour, FIG. 12
Experimental: The % inhibition of relaxation is calculated from the maximum ACh-induced relaxation observed in the presence of the arginine analog relative to that in its absence. Points represent mean values±SEM (n=4-6). […] Another N^G substitution tested for inhibition of induced nitrite release had two methyl groups on one of the arginine guanidino nitrogens. Concentration-response relationships for inhibition of A23187-stimulated nitrite release by bovine aortic endothelial cells (BAEC) are shown in FIG. 9a for the N,N-disubstituted derivative in comparison with several monosubstituted derivatives. Nitrite production was measured as an indication of nitric oxide synthesis since nitric oxide spontaneously decays to nitrite. Nitrite production by BAEC in a 2-hr. period was assessed in an L-arginine-free medium alone or in the presence of the indicated concentration of arginine analogs. The points plotted represent means±S.E. of the percent inhibition of nitrite production observed in 3 individual BAEC culture wells. The key on FIG. 9a indicates the groups substituted on the guanidino nitrogens of L-arginine.
Points are mean values±SEM (n=3).

untreated dogs [4] = experiment: NMMA in untreated dogs (Example 5); assay type: in vivo, dog
Experimental: Administration of ET to dogs was clearly more toxic and less predictable than TNF administration. […] Within 1.5 minutes the blood pressure increased by 33±2.5 mmHg.

L929 cells = experiment: Cytolytic activity of rh-TNF against Actinomycin D-treated L929 cells; assay type: cell-based, murine
Experimental: TNF bioactivity was measured by the cytotoxicity towards murine L929 cells, in vitro.

[5] = test system: human LAK cells against Raji target cells; experiment: IL-2 mediated lymphokine activated killer cell activity in vitro; assay type: cell-based
Experimental: *% Lysis calculated from the % of release of radioactivity from ^51
Crlabeled Raji Target cells minus spontaneous release.

Row | Structure (SMILES) | effect of L-arginine on the reversal [1] | duration of NMMA-induced bradycardia (untreated dogs [2]; dog, in vivo) [min] | time to initial blood pressure increase (untreated dogs [2]; untreated dogs (n=3), NMMA alone) [min] | time within which blood pressure increased (untreated dogs [2]; untreated dogs, FIG. 7b) [min] | blood pressure increase by NMMA (untreated dogs [2]; untreated dogs, FIG. 7b, within 2 minutes) [mmHg] | HR after NMMA (untreated dogs [2]; untreated dogs, FIG. 7b, decrease from 101) [beats/minute] | inhibition of EDRF/NO in vascular preparation (rat aorta) | effect on EDRF/NO (nitrite) release [3] | increase in blood pressure by NMMA (untreated dogs [4]; normal untreated dog, compared with 20 mg/kg NMMA in lethal shock) [mm] | increase in blood pressure by NMMA (untreated dogs [4]; untreated animals) [mm Hg] | TNF Activity (L929 cells; [NMMA] 0.125 mM) [Units/ml] | TNF Activity (L929 cells; [NMMA] 0.250 mM) [Units/ml] | TNF Activity (L929 cells; [NMMA] 0.500 mM) [Units/ml] | TNF Activity (L929 cells; [NMMA] 1.0 mM) [Units/ml] | effect on cytolytic effect of TNF towards tumor cells (L929 cells; murine L929 cells, in vitro) | % Target Cell Lysis ([5]; [NMMA] 2.0 mM, E:T = 80:1, 40 U/ml IL2) [%] | effect on proliferation phase or lytic phase of LAK cells ([5]; exposed to IL-2, in vitro) | anti-tumor activity of IL-2 in vitro ([5]; in vitro)
1 | N=C(N)NCCC[C@H](N)C(=O)O [L-arginine, reference compound] | obviated this reversal |  |  |  |  |  |  |  |  |  |  |  |  |  |  |  |  | 
2 | CNC(=N)NCCC[C@H](N)C(=O)O [NMMA, N^G -methyl-L-arginine] |  | 31 | ≤ 1.7 | ≤ 2 | 12 | 92 | arginine reversible inhibitor of EDRF/NO | inhibits EDRF/NO release | 35 | 12 | 536.9 | 538.2 | 562.4 | 415.7 | did not alter the cytolytic effect of TNF | 75.1 ± 4.1 | did not alter | does not inhibit the anti-tumor activity
